Molecules are shown by their SMILES.

Data set [1] has as its system UM-UC-3 cells. Kind of data set: Apoptosis induction ELISA (histone-associated DNA), UM-UC-3 cells. It counts as cell-based, human. The conditions noted are these: 24 h. On the procedure: (§1) FIG. 3. The effect of AITC on cell survival and proliferation. AITC was evaluated at the indicated concentrations in human bladder cancer UM-UC-3 cells, rat bladder cancer AY-27 cells, and normal human bladder epithelial cells (HUC). A. Cell growth inhibition, measured by MTT assay, 72-h AITC treatment. IC50 was calculated from nonlinear regression curve fit. B. Cell cycle arrest (□, subG1; ? , G1; ? , 5; ▪, G2/M), measured by flow cytometry, 24 h AITC treatment. C. Apoptosis induction, measured by an ELISA assay, 24 h AITC treatment. Mean±SE, n=3-6), *P<0.05.
FIG. 10. The effect of NAC-AITC on cell survival and proliferation. NAC-AITC was evaluated in both UM-UC-3 cells and AY-27 cells. (A) Chemical structures of AITC and NAC-AITC. (B) Cell growth and proliferation, measured by 3-([…])-2,5-diphenyltetrazolium bromide assay, 72 h treatment with AITC or NAC-AITC at indicated concentrations. IC50 was calculated from the non-linear regression curve fit. (C) Apoptosis, measured by an enzyme-linked immunosorbent assay, 24 h NAC-AITC treatment at 15 µM. (D) Cell cycle (open bars, G1; shaded bars, S; closed bars, G2/M), measured by flow cytometry, 24 h NAC-AITC treatment at 15 μM. *P<, 0.005, compared with control.
The effect of NAC-AITC on cell cycle progression was measured by flow cytometry as described previously. […]
(An ELISA detects its analyte on a solid surface through an enzyme-linked reagent.)

Data set [2] relates to UM-UC-3 cells. Kind of data set: Cell cycle arrest by flow cytometry, UM-UC-3 cells. It counts as cell-based, human. The conditions noted are these: 24 h. The procedure: as §1
FIG. 4. Effect of AITC on mitosis, tubulin expression and apoptosis in human bladder cancer UM-UC-3 cells. Cells were treated with vehicle or AITC for 24 h (each numerical value is mean±SD). A. Flow cytometry analysis for cell cycle arrest. B. Wright-Giemsa staining for counting mitotic figures. Arrows point to cells in mitosis or mitotic catastrophe. C. Immunofluorescent staining of microtubules (green color) and DNA staining with DAPI (blue color). D. Western blotting of tubulins (GAPDH as a loading control). E. Loss of mitochondrial transmembrane potential (Δψm) measured by flow cytometry. […] G. Apoptotic cells (TUNEL cells) measured by flow cytometry. […]
FIG. 10. […] NAC-AITC was evaluated in both UM-UC-3 cells and AY-27 cells. […] (B) Cell growth and proliferation, measured by 3-([…])-2,5-diphenyltetrazolium bromide assay, 72 h treatment with AITC or NAC-AITC at indicated concentrations. IC50 was calculated from the non-linear regression curve fit. (C) Apoptosis, measured by an enzyme-linked immunosorbent assay, 24 h NAC-AITC treatment at 15 µM. (D) Cell cycle (open bars, G1; shaded bars, S; closed bars, G2/M), measured by flow cytometry, 24 h NAC-AITC treatment at 15 μM. *P<, 0.005, compared with control.
The effect of NAC-AITC on cell cycle progression was measured by flow cytometry as described previously. […] Induction of apoptosis by NAC-AITC was measured using the Cell Death Detection ELISA^plus kit (Roche Diagnostics, Indianapolis, Ind.), following the manufacturer's instruction. […]
Background: A flow cytometer gives signals particle by particle.

Data set [3] concerns orthotopic AY-27 bladder tumor. Kind of data set: Orthotopic rat bladder cancer model. It counts as in vivo, rat (female F344). The conditions noted are these: for tumor-bearing bladders showing muscle invasion: control 71%. From the text: FIG. 6. […] Female F344 rats were inoculated intravesically with bladder cancer AY-27 cells to initiate development of orthotopic bladder tumor. Oral administration of AITC at 0, 10, 25, 50 and 300 micromols/kg once daily was started 1 day after AY-27 cell inoculation and ended 3 weeks later. The number of rats per group varied from 6 to 33; some of the data, particularly the control group (n=33) and the group treated with the lowest dose of AITC (n=23), were pooled from several experiments. A. The initial and final body weights. B. The weights of bladder tumors. […] C. Percentage of bladders where the tumor invaded the muscle tissue. D. H/E staining of the normal rat bladder wall (D1), a superficial rat bladder tumor (D2), and a rat bladder tumor that invaded the muscle layer (D3).
FIG. 8. […] Female F344 rats were inoculated with AY-27 cells intravesically via a urethra catheter to initiate development of orthotopic bladder cancer. Oral administration of MSP-1 of vehicle (water) once daily was started 1 day after cancer cell inoculation and ended 3 weeks later. The number of rats per group varied from 11-29. A. Initial (□) and final (▪) body weights. […] Each value in A and B is mean±SEM. C. Percentage of bladder where the tumor invaded the muscle tissue. D. The effects of MSP-1 on selected anticancer targets in UM-UC-3 cells (in vitro), AY-27 cells (in vitro) and AY-27 tumors (in vivo). […] The bladder tumors were removed from rats treated with MSP-1 at the sinigrin doses of 9 or 90 micromols/kg once daily for 3 weeks, started 1 day after cancer cell inoculation. Cell lysates and tumor homogenates were analyzed by Western blotting, using GAPDH as a loading control.
FIG. 9. […] Female F344 rats were inoculated with bladder cancer AY-27 cells to initiate development of orthotopic bladder tumor. Oral administration of the powder (sinigrin and glucoraphanin: each at 10 micromols/kg) once daily was started 1 day after AY-27 cell inoculation and ended 3 weeks later. The number of rats per group was 9-10. Each value is mean±SE.
FIG. 12. […] Bladder cancer was initiated in female F344 rats by orthotopic inoculation of bladder cancer AY-27 cells. Oral administration of NAC-AITC at 10 μmmol/kg body wt once daily was started 1 day after cancer cell inoculation and ended 3 weeks later. There were 23 rats in the control group and 15 rats in the treatment group. (A) The initial (open bars) and final (closed bars) body weight. (B) Bladder tumor weight. Each value is a mean±SE. (C) Percentage of bladders where the tumor invaded the muscle tissue.
AITC was evaluated in an orthotopic rat bladder cancer model. […] Daily oral administration of AITC was initiated one day after instillation of AY-27 cells and continued for 3 weeks. AITC was evaluated at 4 dose levels: 10, 25, 50 and 300 micromols/kg. […] FIG. 6D depicts representative images of normal rat bladder wall (D1), a superficial AY-27 rat bladder tumor (D2), and a muscle-invasive AY-27 rat bladder tumor (D3).
A syngeneic orthotopic rat bladder cancer model.

Where [4] appears, read: 10 μmol/kg body wt oral once daily, 3 weeks.

Turning to `C=CCN=C=S` [AITC, allyl isothiocyanate], the “increase in cytoplasmic levels of histone-associated DNA” value in data set [1] (AITC) is reported as “up to 3.9 fold”. Besides, the “cells in G2/M phase” value in data set [2] (AITC 7.5-15 microM, control 9.9-11.5%) is listed as “up to 72%”. In addition, in data set [2] (AITC), the “increase in subG1 population” value is on record as “up to 6.5 fold”. Further, the “inhibition of muscle invasion” value in data set [3] (setting [4]) amounted to 73%. The “inhibition of tumor growth” value worked out at 30% in data set [3] (setting [4]) and 30% in data set [3] (AITC lower dose levels (10, 25, 50 micromols/kg) oral daily, 3 weeks). Also, the “tumor-bearing bladders showing muscle invasion” value in data set [3] (AITC 10 micromols/kg) is reported as 18.9%; in data set [3] (AITC 25 micromols/kg), 27%; in data set [3] (AITC 50 or 300 micromols/kg), 50%. Also, in data set [3] (AITC 300 micromols/kg oral daily, 3 weeks), the “inhibition of orthotopic bladder cancer growth” value is 20%.

On to `C=CCNC(=S)SC[C@H](NC(C)=O)C(=O)O` [NAC-AITC, N-acetyl-S—(N-allylthiocarbamoyl)cysteine], for which the “increase in apoptotic activity” value in data set [1] (15 μM) is on record as 8.8 fold. Further, the “cells in G2/M phase” value in data set [2] (NAC-AITC 15 µM, control 11-12%) is 55%. Moreover, in data set [3] (setting [4]), the “inhibition of muscle invasion” value stood at 49% and the “inhibition of tumor growth” value worked out at 40%. For the same molecule, the “effect on body weight” value in data set [3] (NAC-AITC 10 μmol/kg daily, 3 weeks) is “no significant effect on body weight”. For the same molecule, the “bladders with muscle invasion” value in data set [3] (NAC-AITC 10 μmol/kg, control 79%) was 30%.
